Literature values, collected in patent US20060270852A1, “PREPARATION OF BISQUINOLINE COMPOUNDS” (priority 2005, published 2006).
Where two headings read alike, the source gives them in different places.

Columns and labels:
[1] = not given; remark: listed apart in the source
[2] = tested on: falciparum and vivax malaria

dissociation constant [pKa] | solubility in water ([1]; at neutral and alkaline pH) | solubility in water [1] | SMILES | efficacy compared with chloroquine ([2]; against falciparum and vivax malaria) | tolerability compared with chloroquine ([2]; in vivo)
8.92 | only sparingly soluble in water |  | Clc1ccc2c(N3CCN(CCCN4CCN(c5ccnc6cc(Cl)ccc56)CC4)CC3)ccnc2c1 [piperaquine, 1,3-Bis-[4-(7′-chloro-quinoline-4′)piperazine-1]propane] | at least as effective as | better tolerated than
 |  | soluble in water | Clc1ccc2c(N3CCN(CCCN4CCN(c5ccnc6cc(Cl)ccc56)CC4)CC3)ccnc2c1 [Piperaquine phosphate] |  | 
